The term IC50 denotes the concentration needed to halve the response being measured.

Numbered stars: 1 amine (or outer) side, 2 acyl side, 3 side chain; on linkers, the order of the positions; unused ones are H or OH. Square brackets hold non-standard residues; d marks the D form. Peptide text beside a SMILES is read from it. * marks the point of attachment. ξ: configuration not given here. ξAbu(4,4-F2)ψ(COCO) = O=C(C(=O)[*:2])C(CC(F)F)N[*:1]; Dip = N[C@H](C(=O)O)C(c1ccccc1)c1ccccc1; X5 = O=C(c1nc2ccccc2s1)C(CC(F)F)N*; ξAla(CF3) = NC(CC(F)(F)F)C(=O)O; Cha = N[C@@H](CC1CCCCC1)C(=O)O; X3 = O=C(C(CC(F)F)N[*:1])[*:2]; X4 = COC(=O)C(=O)C(CC(F)F)N*; X9 = O=C(O)CC(CC(F)F)N*; NHBn = c1ccc(CN*)cc1

The target of the first assay is T1, HCV NS3 protease (Hepatitis C virus genotype 1b, UniProt P26663).
T1 construct: an NS3/4A complex comprising the NS3 protease domain
T1 sequence (P26663 1027-1208, other chains not shown): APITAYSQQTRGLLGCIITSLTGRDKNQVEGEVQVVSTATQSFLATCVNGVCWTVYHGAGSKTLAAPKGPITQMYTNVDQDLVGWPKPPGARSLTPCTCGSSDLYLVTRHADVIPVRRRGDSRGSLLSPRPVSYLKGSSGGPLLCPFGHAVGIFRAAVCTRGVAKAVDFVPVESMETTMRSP
Briefly: Inhibition of NS3 protease (HPLC cleavage assay, NS3/4A complex with Pep4AK, substrate peptide 4AB). It counts as biochemical. The conditions noted are these: IC50, Table 1 hexapeptides, cell printed without unit. As for the experimental part: Buffer solutions containing 80 μM Pep4AK were preincubated for 10 minutes with 10-200 nM protease and reactions were started by addition of substrate. Six duplicate data points at different substrate concentrations were used to calculate kinetic parameters. Incubation times were chosen in order to obtain <7% substrate conversion and reactions were stopped by addition of 40 μl 1% TFA. Cleavage of peptide substrates was determined by HPLC using a Merck-Hitachi chromatograph equipped with an autosampler. 80 μl samples were injected on a Lichrospher C18 reversed phase cartridge column (4×74 mm, 5 μm, Merck) and fragments were separated using a 10-40% acetonitrile gradient a 5%/min using a flow rate of 2.5 ml/min. Peak detection was accomplished by monitoring both the absorbance at 220 nm and tyrosine fluorescence (λex=260 nm, λem=305 nm). Cleavage products were quantitated by integration of chromatograms with respect to appropriate standards. Kinetic parameters were calculated from nonlinear least-squares fit of initial rates as a function of substrate concentration with the help of a Kaleidagraph software, assuming Michaelis-Menten kinetics.
Ki values of peptide inhibitors were calculated from substrate titration experiments performed in the presence of increasing amounts of inhibitor. Experimental data sets were simultaneously fitted to eq.1 using a multicurve fit macro with the help of a Sigmaplot software: V=(VmaxS)/(Km(1+[…])+S); (eq.1)
Alternatively, Ki values were derived from IC50 values, calculated using a four-parameter logistic function, according to eq.2: IC50−(1+S/Km)Ki (eq.2)
As for `CSCC[C@H](NC(=O)[C@H](CCC(=O)O)NC(=O)[C@H](CC(=O)O)NC(C)=O)C(=O)N[C@@H](CCC(=O)O)C(=O)N[C@@H](CCC(=O)O)C(=O)NC(CC(F)F)C(=O)O` (stereo partly drawn) [Compound 1a] (Ac-DEMEE[X3]-OH), 3000 nM corresponded to half-maximal inhibition (IC50).

Still in this assay, the particulars now being: Table 1 hexapeptides, cells printed in nM; read-out: IC50.
For `CC(=O)N[C@@H](CC(=O)O)C(=O)N[C@@H](CCC(=O)O)C(=O)N[C@H](C(=O)N[C@@H](CCC(=O)O)C(=O)N[C@@H](CC1CCCCC1)C(=O)NC(CC(F)F)C(=O)C(=O)O)C(c1ccccc1)c1ccccc1` (stereo partly drawn) [Compound 1d] (Ac-DE[Dip]E[Cha]-{ξAbu(4,4-F2)ψ(COCO)}), the IC50 turned out to be 0.4 nM.

Regarding `CC(=O)N[C@@H](CC(=O)O)C(=O)N[C@@H](CCC(=O)O)C(=O)N[C@H](C(=O)N[C@@H](CCC(=O)O)C(=O)N[C@@H](CC1CCCCC1)C(=O)NC(CC(F)F)C(=O)C(=O)NCc1ccccc1)C(c1ccccc1)c1ccccc1` (stereo partly drawn) [Compound 1e] (Ac-DE[Dip]E[Cha][ξAbu(4,4-F2)ψ(COCO)]-NHBn), the IC50 was 5 nM.

Regarding `COC(=O)C(=O)C(CC(F)F)NC(=O)[C@H](CC1CCCCC1)NC(=O)[C@H](CCC(=O)O)NC(=O)[C@@H](NC(=O)[C@H](CCC(=O)O)NC(=O)[C@H](CC(=O)O)NC(C)=O)C(c1ccccc1)c1ccccc1` (stereo partly drawn) [Compound 1f] (Ac-DE[Dip]E[Cha]-X4), the IC50 is 800 nM.

As for `CC(=O)N[C@@H](CC(=O)O)C(=O)N[C@@H](CCC(=O)O)C(=O)N[C@H](C(=O)N[C@@H](CCC(=O)O)C(=O)N[C@@H](CC1CCCCC1)C(=O)NC(CC(F)(F)F)C(=O)O)C(c1ccccc1)c1ccccc1` (stereo partly drawn) [Compound 1g] (Ac-DE[Dip]E[Cha][ξAla(CF3)]-OH), the IC50 was found to be 100 nM.

In the case of `CC(=O)N[C@@H](CC(=O)O)C(=O)N[C@@H](CCC(=O)O)C(=O)N[C@H](C(=O)N[C@@H](CCC(=O)O)C(=O)N[C@@H](CC1CCCCC1)C(=O)NC(CC(F)F)C(=O)c1nc2ccccc2s1)C(c1ccccc1)c1ccccc1` (stereo partly drawn) [Compound 1i] (Ac-DE[Dip]E[Cha]-X5), the IC50 worked out at 150 nM.

The same assay, now with this note: Table 1 hexapeptides, cells printed in μM; read-out: IC50.
For the compound `CC(=O)N[C@@H](CC(=O)O)C(=O)N[C@@H](CCC(=O)O)C(=O)N[C@H](C(=O)N[C@@H](CCC(=O)O)C(=O)N[C@@H](CC1CCCCC1)C(=O)NC(CC(=O)O)CC(F)F)C(c1ccccc1)c1ccccc1` (stereo partly drawn) [Compound 1h] (Ac-DE[Dip]E[Cha]-X9), the IC50 turned out to be 3000 nM.

Staying with this assay, now noted: Table 4 indoline keto acids and related; read-out: IC50.
For `COc1ccc2c(c1)NC(C(=O)N[C@@H](CC(C)C)C(=O)NC(CC(F)F)C(=O)C(=O)O)C2` (single isomer, unassigned) [Compound 10a], the IC50 was 25000 nM.

For `COc1ccc2c(c1)NC(CC(C)C)(C(=O)N[C@@H](CC(C)C)C(=O)NC(CC(F)F)C(=O)C(=O)O)C2` (single isomer, unassigned) [Compound 10b], the IC50 turned out to be 24000 nM.

For `CC(C)C[C@H](NC(=O)C1Cc2ccc(OC3CCCC3)cc2N1)C(=O)NC(CC(F)F)C(=O)C(=O)O` (single isomer, unassigned) [Compound 10e], the IC50 stood at 18000 nM.

Regarding `CC(C)C[C@H](NC(=O)C1Cc2ccc(OCC(=O)O)cc2N1)C(=O)NC(CC(F)F)C(=O)C(=O)O` (single isomer, unassigned) [Compound 10f], the IC50 came to 10000 nM.

For `CC(C)C[C@H](NC(=O)C1Cc2ccc(OC3CCS(=O)(=O)CC3)cc2N1)C(=O)NC(CC(F)F)C(=O)C(=O)O` (single isomer, unassigned) [Compound 10i], the IC50 is 30000 nM.

`CC(C)CC1c2ccccc2NC1C(=O)N[C@@H](CC(C)C)C(=O)NC(CC(F)F)C(=O)C(=O)O` (single isomer, unassigned) [Compound 12]: the IC50 was found to be 26000 nM.

Consider `CC(C)C[C@H](NC(=O)c1cc2ccccc2[nH]1)C(=O)NC(CC(F)F)C(=O)C(=O)O` (single isomer, unassigned) [Compound 13], for which the IC50 was 70000 nM.

In the case of `CC(C)C[C@H](NC(=O)c1[nH]c2ccccc2c1OC(C(=O)O)c1cccc(Cl)c1)C(=O)NC(CC(F)F)C(=O)C(=O)O` (single isomer, unassigned) [Compound 14], the IC50 is 10000 nM.

Source of the values: US6867284B1, “Peptide inhibitors of hepatitis C virus NS3 protease” (Istituto di Ricerche di Biologia Molecolare P. Angeletti …, priority 1998, dated 2005).
